Data published in patent publication US4508648A, “Phosphoric ester of antibiotic OA-6129” (Sanraku-Ocean Co., Ltd., priority 1981, dated 1985).
Converted amounts (≈) assume the structure as drawn.

Tests used:
[1] = Relative stability in kidney homogenate of dog; type: in vitro ADME; conditions: 37° C., 60 minutes, drug solution 100-300 μg/ml, read-out: Relative stability: drug remaining as a percentage of initial concentration
Description: (§1) *A drug solution (100-300 μg/ml) (0.1 ml) and a kidney homogenate (0.1
(§2) ml) were allowed to react at 37° C. for 60 minutes and the mixture
(§3) was immediately heattreated at 100° C. for 15 seconds. After
(§4) centrifugation, the concentration of the drug remaining in the supernatan
(§5) solution was bioassayed as a percentage of initial concentration by
(§6) Comamonas terrigena B996.
(§7) An overnight culture of Comamonas terrigena B-996 on a nutrient agar slant was suspended in nutrient broth to give a cell suspension of absorbance 0.04 at 610 nm. One percent of the cell suspension in volume was inoculated into molten agar medium containing 0.8% in weight of Kyokuto powdered bouillon (Kyokuto Pharmaceutical Co.) and 1.0% in weight of Bato-agar (Difco Lab.), and 7 ml each of the inoculated agar medium was poured into a 9 cm petri dish to make a Comamonas assay plate.

[2] = Relative stability in phosphate buffer, pH 7.0 (control); type: physicochemical; conditions: 37° C., 60 minutes, drug solution 100-300 μg/ml, read-out: Relative stability: drug remaining as a percentage of initial concentration
Description: as §1, §2, §3, §4, §5, §6, §7

[3] = Relative stability in kidney homogenate of man; type: in vitro ADME; conditions: human (man) kidney homogenate; 37° C., 60 minutes; drug solution 100-300 μg/ml; read-out: Relative stability: drug remaining as a percentage of initial concentration
Description: as §1, §2, §3, §4, §5, §6, §7

[4] = Relative stability in kidney homogenate of mouse; type: in vitro ADME; conditions: 37° C., 60 minutes, drug solution 100-300 μg/ml, read-out: Relative stability: drug remaining as a percentage of initial concentration
Description: as §1, §2, §3, §4, §5, §6, §7

Proteus rettgeri P-6 = experiment: Minimum inhibitory concentration, agar dilution technique; type: cell-based; conditions: Providencia rettgeri, P6; heart infusion agar; inoculum 10^6 cells/ml; read-out: Minimum Inhibitory Concentration (M.I.C.)
Text: (§8) Minimum Inhibitory Concentration (M.I.C. in μg/ml)**
(§9) **Medium heartinfusion agar (Difco Lab.); inoculum size 10^6 cells/ml
(§10) determined by the agar dilution technique

[5] = tested on: Staphylococcus aureus Russell; experiment: as above; type: cell-based; conditions: heart infusion agar, inoculum 10^6 cells/ml, read-out: Minimum Inhibitory Concentration (M.I.C.)
Text: as §8, §9, §10

Proteus mirabilis P-6 = experiment: as above; type: cell-based; conditions: P6, heart infusion agar, inoculum 10^6 cells/ml, read-out: Minimum Inhibitory Concentration (M.I.C.)
Text: as §8, §9, §10

Alcaligenes faecalis A1 = experiment: as above; type: cell-based; conditions: heart infusion agar, inoculum 10^6 cells/ml, read-out: Minimum Inhibitory Concentration (M.I.C.)
Text: as §8, §9, §10

[6] = tested on: Staphylococcus aureus Smith; experiment: as above; type: cell-based; conditions: heart infusion agar, inoculum 10^6 cells/ml, read-out: Minimum Inhibitory Concentration (M.I.C.)
Text: as §8, §9, §10

Escherichia coli K-12 = experiment: as above; type: cell-based; conditions: K12, heart infusion agar, inoculum 10^6 cells/ml, read-out: Minimum Inhibitory Concentration (M.I.C.)
Text: as §8, §9, §10

Providencia sp. P-8 = experiment: as above; type: cell-based; conditions: SP.P8, heart infusion agar, inoculum 10^6 cells/ml, read-out: Minimum Inhibitory Concentration (M.I.C.)
Text: as §8, §9, §10

Enterobacter sp. E-8 = experiment: as above; type: cell-based; conditions: SP.E8, heart infusion agar, inoculum 10^6 cells/ml, read-out: Minimum Inhibitory Concentration (M.I.C.)
Text: as §8, §9, §10

[7] = tested on: Comamonas terrigena B-996; experiment: as above; type: cell-based; conditions: B996, heart infusion agar, inoculum 10^6 cells/ml, read-out: Minimum Inhibitory Concentration (M.I.C.)
Text: as §8, §9, §10

[8] = tested on: Bacillus subtilis ATCC 6633; experiment: as above; type: cell-based; conditions: ATCC6633, heart infusion agar, inoculum 10^6 cells/ml, read-out: Minimum Inhibitory Concentration (M.I.C.)
Text: as §8, §9, §10

Sarcina lutea = experiment: as above; type: cell-based; conditions: Micrococcus luteus; heart infusion agar; inoculum 10^6 cells/ml; read-out: Minimum Inhibitory Concentration (M.I.C.)
Text: as §8, §9, §10

[9] = tested on: Staphylococcus epidermidis; experiment: as above; type: cell-based; conditions: heart infusion agar, inoculum 10^6 cells/ml, read-out: Minimum Inhibitory Concentration (M.I.C.)
Text: as §8, §9, §10

[10] = tested on: Staphylococcus aureus 209P; experiment: as above; type: cell-based; conditions: heart infusion agar, inoculum 10^6 cells/ml, read-out: Minimum Inhibitory Concentration (M.I.C.)
Text: as §8, §9, §10

[11] = tested on: Pseudomonas aeruginosa IFO 3445; experiment: as above; type: cell-based; conditions: IFO3445, beta-lactam-resistant strain, heart infusion agar, inoculum 10^6 cells/ml, read-out: Minimum Inhibitory Concentration (M.I.C.)
Text: as §8
(§11) *Beta-lactam-resistant strain.
as §9, §10

Escherichia coli RGN823 = experiment: as above; type: cell-based; conditions: RGN823, read-out: Minimum Inhibitory Concentration (M.I.C.)
Text: as §8, §11, §9, §10

[12] = tested on: Enterobacter aerogenes E-19; experiment: as above; type: cell-based; conditions: Klebsiella aerogenes, E19; beta-lactam-resistant strain; heart infusion agar; inoculum 10^6 cells/ml; read-out: Minimum Inhibitory Concentration (M.I.C.)
Text: as §8, §11, §9, §10

Serratia marcescens T55 = experiment: as above; type: cell-based; conditions: beta-lactam-resistant strain, heart infusion agar, inoculum 10^6 cells/ml, read-out: Minimum Inhibitory Concentration (M.I.C.)
Text: as §8, §11, §9, §10

[13] = tested on: Klebsiella pneumoniae K13; experiment: as above; type: cell-based; conditions: K13, beta-lactam-resistant strain, heart infusion agar, inoculum 10^6 cells/ml, read-out: Minimum Inhibitory Concentration (M.I.C.)
Text: as §8, §11, §9, §10

Serratia marcescens S-18 = experiment: as above; type: cell-based; conditions: S18, beta-lactam-resistant strain, heart infusion agar, inoculum 10^6 cells/ml, read-out: Minimum Inhibitory Concentration (M.I.C.)
Text: as §8, §11, §9, §10

[14] = tested on: Citrobacter freundii GN346; experiment: as above; type: cell-based; conditions: beta-lactam-resistant strain, heart infusion agar, inoculum 10^6 cells/ml, read-out: Minimum Inhibitory Concentration (M.I.C.)
Text: as §8, §11, §9, §10

Proteus vulgaris GN76 = experiment: as above; type: cell-based; conditions: beta-lactam-resistant strain, heart infusion agar, inoculum 10^6 cells/ml, read-out: Minimum Inhibitory Concentration (M.I.C.)
Text: as §8, §11, §9, §10

Enterobacter cloacae 45 = experiment: as above; type: cell-based; conditions: beta-lactam-resistant strain, heart infusion agar, inoculum 10^6 cells/ml, read-out: Minimum Inhibitory Concentration (M.I.C.)
Text: as §8, §11, §9, §10

[15] = tested on: Pseudomonas aeruginosa NCTC 10490; experiment: as above; type: cell-based; conditions: NCTC10490, beta-lactam-resistant strain, heart infusion agar, inoculum 10^6 cells/ml, read-out: Minimum Inhibitory Concentration (M.I.C.)
Text: as §8, §11, §9, §10

Proteus sp. P-22 = experiment: as above; type: cell-based; conditions: beta-lactam-resistant strain; heart infusion agar; inoculum 10^6 cells/ml; read-out: Minimum Inhibitory Concentration (M.I.C.)
Text: as §8, §11, §9, §10

In the case of `CCC1C(=O)N2C(C(=O)O)=C(SCCNC(C)=O)CC12` (centres unmarked) [Antibiotic PS-5], the remaining at 1 h [1] is reported as 10%, the remaining at 1 h [2] is reported as 100% and the remaining at 1 h [3] is reported as 28%. It also gave a remaining at 1 h [4] of 10%.
`Cc1nnc(SCC2=C(C(=O)O)N3C(=O)[C@@H](NC(=O)Cn4cnnn4)[C@H]3SC2)s1` [Cefazolin] gave an MIC (Proteus rettgeri P-6) of 3.13 µg/mL (≈ 6.89 µM), an MIC [5] of 0.2 µg/mL (≈ 0.44 µM) and an MIC (Proteus mirabilis P-6) of 6.25 µg/mL (≈ 13.8 µM). The MIC (Alcaligenes faecalis A1) was 3.13 µg/mL (≈ 6.89 µM), the MIC [6] was 0.2 µg/mL (≈ 0.44 µM) and the MIC (Escherichia coli K-12) was 1.56 µg/mL (≈ 3.43 µM). It also gave an MIC (Providencia sp. P-8) of 0.78 µg/mL (≈ 1.72 µM), an MIC (Enterobacter sp. E-8) of 1.56 µg/mL (≈ 3.43 µM) and an MIC [7] of 0.1 µg/mL (≈ 0.22 µM). It also gave an MIC [8] of 0.1 µg/mL (≈ 0.22 µM), an MIC (Sarcina lutea) of 0.39 µg/mL (≈ 0.858 µM) and an MIC [9] of 0.2 µg/mL (≈ 0.44 µM). For the same compound, the MIC [10] was 0.05 µg/mL (≈ 0.11 µM), the MIC [11] was > 400 µg/mL and the MIC (Escherichia coli RGN823) was 1.56 µg/mL (≈ 3.43 µM). For the same compound, the MIC [12] was > 400 µg/mL, the MIC (Serratia marcescens T55) was > 400 µg/mL and the MIC [13] was 12.5 µg/mL (≈ 27.5 µM). For the same compound, the MIC (Serratia marcescens S-18) was > 400 µg/mL, the MIC [14] was > 400 µg/mL and the MIC (Proteus vulgaris GN76) was > 400 µg/mL. For the same compound, the MIC (Enterobacter cloacae 45) was > 400 µg/mL, the MIC [15] was > 400 µg/mL and the MIC (Proteus sp. P-22) was > 400 µg/mL.
Work on `CC(O)C1C(=O)N2C(C(=O)O)=C(SCCNC(=O)CCNC(=O)C(O)C(C)(C)CO)CC12` (centres unmarked) [Antibiotic OA-6129B] yielded a remaining at 1 h [1] of 20%, a remaining at 1 h [2] of 98% and a remaining at 1 h [3] of 47%. It also gave a remaining at 1 h [4] of 20%.
